Assay results taken from the supplement of paper PMC10307832.

How the values were obtained:
Assay in all cases: relative viability (nuclei count vs DMSO), 5 days (fraction); higher = more cells survive
[1] = compound: Cc1cnc(CNC(=O)c2c(=O)c3ccc(N4CCCN(C)CC4)nc3n3c2sc2ccccc23)cn1 [CX-5461] + Nc1ncn([C@H]2C[C@H](O)[C@@H](CO)O2)c(=O)n1 [Decitabine] (partner 2 µM)
Procedure, shortened: (§1)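 Cells from lung cancer lines were seeded into 1536-well plates and, one day later, dosed by pin tool. Treatments were either a single drug or a fixed dose of an anchor drug with five library-drug doses (not always all listed) in √10 steps. After 5 days, nuclei were stained in a one-step fixation (final 0.05% Triton X-100, 1% formaldehyde, 1 ug/ml Hoechst) and counted on 4× images, and relative viability is the treated-to-vehicle nuclei ratio, as the median of duplicate plates.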

[2] = compound: O=C(Nc1cc(C(F)(F)F)cc(C(F)(F)F)c1)c1cc(Cl)ccc1O [IMD-0354] + Cc1cc(Nc2cc(N3CCN(C)CC3)nc(Sc3ccc(NC(=O)C4CC4)cc3)n2)n[nH]1 [Tozasertib] (partner 0.1 µM)
Procedure, shortened: as §1

[3] = compound: Cc1cnc(CNC(=O)c2c(=O)c3ccc(N4CCCN(C)CC4)nc3n3c2sc2ccccc23)cn1 [CX-5461] + C[C@@H](Oc1cc(-c2cnn(C3CCNCC3)c2)cnc1N)c1c(Cl)ccc(F)c1Cl [Crizotinib] (partner 1 µM)
Procedure, shortened: as §1

[4] = compound: O=C(Nc1cc(C(F)(F)F)cc(C(F)(F)F)c1)c1cc(Cl)ccc1O [IMD-0354] + O=C(CCCCCCC(=O)Nc1ccccc1)NO [Vorinostat] (partner 1 µM)
Procedure, shortened: as §1

Cell Line	relative viability ([1]; first compound 0.01 µM)	relative viability ([1]; first compound 0.03162 µM)	relative viability ([1]; first compound 0.1 µM)	relative viability ([1]; first compound 0.3162 µM)	relative viability ([1]; first compound 1 µM)	relative viability ([2]; first compound 0.04 µM)	relative viability ([2]; first compound 0.1265 µM)	relative viability ([2]; first compound 0.4 µM)	relative viability ([2]; first compound 1.265 µM)	relative viability ([2]; first compound 4 µM)	relative viability ([3]; first compound 0.01 µM)	relative viability ([3]; first compound 0.03162 µM)	relative viability ([3]; first compound 0.1 µM)	relative viability ([3]; first compound 0.3162 µM)	relative viability ([3]; first compound 1 µM)	relative viability ([4]; first compound 0.04 µM)	relative viability ([4]; first compound 0.1265 µM)	relative viability ([4]; first compound 0.4 µM)	relative viability ([4]; first compound 1.265 µM)	relative viability ([4]; first compound 4 µM)
NCI-H23	0.371	0.344	0.363	0.299	0.268	0.338	0.376	0.275	0.157	0.186	0.609	0.584	0.55	0.437	0.48	0.664	0.745	0.289	0.172	0.192
HCC-366	0.37	0.349	0.293	0.347	0.327	0.122	0.0913	0.168	0.0335	0.031	0.693	0.82	0.573	0.252	0.48	0.314	0.439	0.206	0.165	0.0652
EMC-BAC-2	0.97	0.994	0.709	0.655	0.473	0.276	0.301	0.24	0.296	0.224	0.782	0.839	0.725	0.541	0.74	0.547	0.473	0.419		0.439
NCI-H2405	0.829	0.779	0.773	0.64	0.608	0.742	0.727	0.732	0.346	0.322	0.827	0.949	0.843	0.549	0.821	1.24	0.984	0.706	0.306	0.335
SK-MES-1	0.379	0.398	0.413	0.394	0.212	1.14	0.873	0.543	0.287	0.215	0.969	1.14	1.01	0.958	0.948	1.4	1.09	0.693	0.305	0.192
NCI-H2170	0.471	0.454	0.493	0.504	0.446	0.788	0.779	0.377	0.624	0.226	1.17	1.29	1.28	1.18	1.09	0.859	0.89	0.573	0.74	0.231
EPLC-272H	0.358	0.425	0.396		0.297	0.256	0.241	0.16	0.24	0.113	1.04	1.01	0.941		0.985	0.285	0.463	0.754	0.172	0.338
NCI-H1915	0.266	0.259	0.284	0.244	0.283	0.482	0.412	0.299	0.268	0.175	0.937	0.934	0.892	0.888	0.902	0.496	0.509	0.339	0.334	0.115
